Data from patent US20230008508A1, “COMBINATION THERAPIES FOR THE TREATMENT OF CANCER” (H. LEE MOFFITT CANCER CENTER AND RESEARCH INSTITUTE, INC., priority 2019, published 2023).

How the values were obtained:
[1] = tested on: cutaneous squamous cell carcinoma (cuSCC) cell lines; assay: Glycolysis of cuSCC cell lines; type: cell-based
[2] = tested on: p53 deficient lung cancers; assay: Tumor regression in p53 deficient tumors; type: in vivo
Description: (§1) Here, is shown that deletion of the AN isoforms of p63 or p73 leads to metabolic reprogramming and regression of p53 deficient tumors (FIG. 1). […] When investigated further it was shown that pramlintide suppresses 4Np63 expression (FIG. 4). […] These findings were validated across the sensitive cell lines Colo16 and RDEB2 and the resistant cell lines SCCIC1 and SRB12 for pramlintide (symlin) administration and regulation by ΔNp63 showing reduced levels for CYR61 and CTGF in the sensitive lines and no effect or increases in resistant lines (FIG. 6). A similar observation was also made with the F-box protein FBXO16. […] Looking at additional cell types, ΔNp63 was expressed in sensitive cells but not resistant cells (FIG. 9). To see if the regulation pattern for CYR61, CTGF, and FBXO16 was maintained in HNSCC cell lines, the expression level for each was measured in SQ20B and FaDu cells with and without the application of pramlintide (symlin) (FIG. 10). As for the Sensitive cuSCC lines, the sensitive HNSCC lines upregulate FBXO16 and downregulate CYR61 and CTGF in response to both pramlintide showing that pramlintide mediated degradation of ΔNp63 affects target gene expression. Thus, target genes cay be used as a biomarker of responsiveness to pramlintide. We next investigated the effect of pramlintide (symlin) on ΔNp63 expression levels in SQ20B (FIG. 11) and FaDu (FIG. 12) cell lines.

[3] = tested on: p53 deficient thymic lymphomas; assay: Tumor regression in p53 deficient tumors; type: in vivo
Description: as §1

ΔNp63 = ΔNp63 expression / protein levels (western blots); type: cell-based; details: for ΔNp63 protein expression: western blot
Description: as §1
(§2) In fact, it was observed that both pramlintide and HDACi treatment reduces ΔNp63 in H1975 lung adenocarcinoma (LUAD) cells (FIG. 15). […] To investigate what effects panobinostat has on the glycolytic rate of HCC95 and H1975 cells, glycolysis was measured by ECAR showing in both […] glycolysis was decreased with treatment (FIG. 17).

CTGF = assay: Expression of ΔNp63 target gene CTGF; type: cell-based
Description: (§3) Sensitive lines downregulate CYR61 and CTGF in response to both pramlintide and direct siRNA-mediated knockdown of ΔNp63 showing that pramlintide mediated degradation of ΔNp63 affects target gene expression. Resistant lines upregulate CYR61 and CTGF in response to both pramlintide and direct siRNA-mediate knockdown of ΔNp63.
as §1

[4] = tested on: spontaneous UV-driven cutaneous squamous cell carcinoma (cuSCC); assay: Tumor regression in spontaneous UV-driven cuSCC model; type: in vivo; details: FIG. 3
Description: as §1

SCCIC1 = assay: Sensitivity of cuSCC cell line to pramlintide (inhibition curve); type: cell-based
Description: (§4) Glycolysis, as measured by Extracellular Acidification Rate (Seahorse), is diminished by pramlintide administration (10 micromolar) in the sensitive SQ20B and FaDu Head and Neck SCC lines. […]
as §1

SRB12 = assay: as above; type: cell-based
Description: as §4, §1

Colo16 = assay: as above; type: cell-based
Description: as §4, §1

RDEB2 = assay: as above; type: cell-based
HCC95 lung SCC cells = assay: Glycolytic rate measured by ECAR; type: cell-based; details: FIG. 17
Procedure: (§5) Glycolysis as measured by ECAR in HCC95 lung SCC and H1975 lung adenocarcinoma cells are decreased by pramlintide.
as §2

[5] = tested on: H1975 lung adenocarcinoma cells; assay: Glycolytic rate measured by ECAR; type: cell-based; details: FIG. 17
Procedure: as §5, §2

HCC95 cells = assay: Cell proliferation and survival (cell cycle arrest, annexin V apoptosis); type: cell-based; details: FIG. 16
Procedure: (§6) Cell cycle arrest and apoptosis are increased by pramlintide and HDACi in HCC95 lung SCC and H1975 lung adenocarcinoma cell lines.
as §2

H1975 cells = assay: as above; type: cell-based; details: FIG. 16
Procedure: as §6, §2

tumors = details: in-vivo; prior published studies; FIG. 20; cited from earlier work
FBXO16 = assay: Expression of ΔNp63 target gene FBXO16; type: cell-based
Description: Sensitive lines upregulate FBXO16 in response to both pramlintide and direct siRNA-mediate knockdown of ΔNp63 showing that pramlintide mediated degradation of ΔNp63 affects target gene expression. Thus target genes may be used as a biomarker of responsiveness to pramlintide. Resistant lines downregulate FBXO16 in response to both pramlintide and direct siRNA-mediate knockdown of ΔNp63 showing that pramlintide mediated degradation of ΔNp63 affects target gene expression.
as §1

SRB12 cells = assay: Radiation treatment with and without pramlintide; type: cell-based; details: pramlintide at the IC40, FIG. 21
Procedure: During the experiments it was observed that Pramlintide induces ROS in in-vivo in tumors (FIG. 20). To investigate whether because of its effect on ROS pramlintide would have a synergistic effect on radiation sensitivity, SRB12 cells were treated with radiation with and without the presence of pramlintide. […] Accordingly, in one aspect, disclosed herein are methods of increasing the sensitivity of a cancer (such as for example, cutaneous squamous cell carcinoma (cuSCC) or lung cancer or any cancer comprising a p53, p63, or p73 mutation or aberrant expression thereof) in a subject to radiation therapy comprising administering to the subject an agent that inhibits ΔNp63 and/or ΔNp73. In one aspect the agent that inhibits ΔNp63 and/or ΔNp73 comprises an inhibitor of glycolysis (such as, for example, an amylin analog including but not limited to pramlintide).

CYR61 = assay: Expression of ΔNp63 target gene CYR61; type: cell-based
Description: as §3, §1

[6] = tested on: FaDu Head and Neck SCC line; assay: Glycolysis measured by Extracellular Acidification Rate (Seahorse); type: cell-based; details: 10 micromolar; sensitive FaDu HNSCC line; FIG. 2D
Description: as §4

[7] = tested on: SQ20B Head and Neck SCC line; assay: as above; type: cell-based; details: 10 micromolar; sensitive SQ20B HNSCC line; FIG. 2D
Description: as §4

[8] = resistant cuSCC lines (SCCIC1, SRB12), FIG. 6
[9] = sensitive HNSCC lines (SQ20B, FaDu), FIG. 10
[10] = sensitive cuSCC lines (Colo16, RDEB2), FIG. 6

Q: For `CC[C@H](C)[C@H](NC(=O)[C@@H]1CCCN1C(=O)CNC(=O)[C@H](Cc1ccccc1)NC(=O)[C@H](CC(N)=O)NC(=O)[C@H](CC(N)=O)NC(=O)[C@H](CO)NC(=O)[C@H](CO)NC(=O)[C@H](Cc1c[nH]cn1)NC(=O)[C@@H](NC(=O)[C@H](CC(C)C)NC(=O)[C@H](Cc1ccccc1)NC(=O)[C@H](CC(N)=O)NC(=O)[C@H](C)NC(=O)[C@H](CC(C)C)NC(=O)[C@H](CCCNC(=N)N)NC(=O)[C@H](CCC(N)=O)NC(=O)[C@@H](NC(=O)[C@H](C)NC(=O)[C@@H]1CSSC[C@H](NC(=O)[C@@H](N)CCCCN)C(=O)N[C@@H](CC(N)=O)C(=O)N[C@@H]([C@@H](C)O)C(=O)N[C@@H](C)C(=O)N[C@@H]([C@@H](C)O)C(=O)N1)[C@@H](C)O)C(C)C)C(=O)N[C@@H](CC(C)C)C(=O)N1CCC[C@H]1C(=O)N1CCC[C@H]1C(=O)N[C@H](C(=O)N[C@@H](CC(N)=O)C(=O)N[C@H](C(=O)NCC(=O)N[C@@H](CO)C(=O)N[C@@H](CC(N)=O)C(=O)N[C@H](C(=O)N[C@@H](Cc1ccc(O)cc1)C(N)=O)[C@@H](C)O)C(C)C)[C@@H](C)O` [pramlintide], which Glycolysis ([1]; resistant cuSCC lines, FIG. 2A, 2C) is on record?
A: do not exhibit this decrease in glycolysis

Q: And the Glycolysis ([1]; sensitive cells, FIGS. 2A-2D)?
A: suppresses glycolysis

Q: And the Tumor regression [2]?
A: rapid tumor regression

Q: And the Tumor regression [3]?
A: rapid tumor regression

Q: What about the ΔNp63 expression (ΔNp63; FIG. 4, cell line not stated) of the same compound?
A: suppresses ΔNp63 expression

Q: What about the “Dependence of ΔNp63 suppression on Fbxw7 expression” value (ΔNp63; FIG. 13) of the same compound?
A: needs to be present

Q: What about the ΔNp63 protein expression (ΔNp63; FaDu, FIG. 12) of the same compound?
A: decreased protein expression

Q: And the ΔNp63 protein levels (ΔNp63; H1975 LUAD cells, FIG. 15)?
A: reduce ΔNp63

Q: What about the ΔNp63 protein levels (ΔNp63; LUSC HCC95 cells, FIG. 14) of the same compound?
A: reduces ΔNp63 protein levels

Q: What about the ΔNp63 protein expression (ΔNp63; SQ20B, FIG. 11) of the same compound?
A: decreased protein expression

Q: What about the CTGF expression (CTGF; [8]) of the same compound?
A: upregulate

Q: And the CTGF expression (CTGF; [9])?
A: downregulate

Q: What about the CTGF expression (CTGF; [10]) of the same compound?
A: downregulate

Q: What about the Tumor regression [4] of the same compound?
A: induces tumor regression

Q: And the Sensitivity to pramlintide (SCCIC1)?
A: resistant

Q: What about the Sensitivity to pramlintide (SRB12) of the same compound?
A: resistant

Q: What about the Sensitivity to pramlintide (Colo16) of the same compound?
A: sensitive

Q: And the Sensitivity to pramlintide (RDEB2)?
A: sensitive

Q: And the “Glycolysis (ECAR)” value (HCC95 lung SCC cells)?
A: decreased

Q: What about the “Glycolysis (ECAR)” value [5] of the same compound?
A: decreased

Q: And the “Apoptosis (annexin V staining)” value (HCC95 cells; HCC95)?
A: increased apoptosis

Q: And the Proliferation (HCC95 cells; HCC95 cells)?
A: reduced proliferation

Q: And the Cell cycle arrest (HCC95 cells; HCC95 lung SCC)?
A: increased

Q: And the “Apoptosis (annexin V staining)” value (H1975 cells; H1975)?
A: increased apoptosis

Q: And the Proliferation (H1975 cells; H1975 cells)?
A: reduced proliferation

Q: And the Cell cycle arrest (H1975 cells; H1975 lung adenocarcinoma)?
A: increased

Q: What about the ROS in tumors (tumors) of the same compound?
A: induces ROS

Q: And the FBXO16 expression (FBXO16; resistant cuSCC lines, FIG. 8)?
A: downregulate

Q: What about the FBXO16 expression (FBXO16; [9]) of the same compound?
A: upregulate

Q: What about the FBXO16 expression (FBXO16; sensitive cuSCC lines, FIG. 8) of the same compound?
A: upregulate

Q: What about the “Sensitivity to radiation treatment” value (SRB12 cells) of the same compound?
A: more sensitive to radiation treatment

Q: What about the CYR61 expression (CYR61; [8]) of the same compound?
A: upregulate

Q: What about the CYR61 expression (CYR61; [9]) of the same compound?
A: downregulate

Q: And the CYR61 expression (CYR61; [10])?
A: downregulate

Q: And the “Glycolysis (Extracellular Acidification Rate)” value [6]?
A: diminished

Q: And the “Glycolysis (Extracellular Acidification Rate)” value [7]?
A: diminished
